Consider four compounds from US20250290915A1, “METHOD FOR PREDICTING RESPONSIVENESS TO THERAPY” (CANCERTAIN LIMITED, priority 2022, published 2025).

The assay concerns Cancer Cells from tissue sample (CSCs, tumour marker+ cells) of a patient with GI cancer (Cholangio Carcinoma, stage 4). The assay is described as follows: Drug response score assay on tissue sample, Example 9. It counts as cell-based, human. The conditions noted are these: for effectiveness on Cancer Cells from tissue sample under laboratory conditions: GI cancer (Cholangio Carcinoma) tissue sample; for Drug sensitivity as calculated by the assay, Tissue: interpretation based on Drug Response Scores; for Drug sensitivity as calculated by the assay, Tissue / Drug response score, conc. 1 / Drug response score, conc. 2 / Drug response score, conc. 3 / Drug response score, conc. 4: tissue sample; for Drug response score, conc. 1: conc. 1 per Table 27B: Pem 20, Niv 20, Atez 100, Pacli 0.05, Irino 5, Beva 1 μg/ml, Len 50, 5-FU 250 ng/ml; for Drug response score, conc. 2: conc. 2 per Table 27B: Pem 40, Niv 40, Atez 200, Pacli 0.1, Irino 10, Beva 2 μg/ml, Len 100, 5-FU 500 ng/ml; for Drug response score, conc. 3: conc. 3 per Table 27B: Pem 100, Niv 80, Atez 400, Pacli 0.2, Irino 25, Beva 4 μg/ml, Len 200, 5-FU 1000 ng/ml; for Drug response score, conc. 4: conc. 4 per Table 27B: Pem 160, Niv 160, Atez 800, Pacli 1, Irino 50, Beva 8 μg/ml, Len 400, 5-FU 2000 ng/ml. Here is the method: Where a tissue sample was provided by each subject, cancer stem cells (CSCs, CD133^+), were isolated from said sample. Tumour marker cells were further isolated from each tissue sample. The remaining cells were designated tumour marker^+ cells.
First, disaggregation of the tissue samples was carried out. Disaggregation was dependent on the size of the tissue sample and the method of retrieval: • EBUS (Endobronchial Ultrasound Scan and Biopsy)—very small fragments of tissue in solution-spun at 1200 rpm for 5 minutes to collect tissue pellet • Bronchoscopy-larger fragments with larger amount of blood vessels • Broncho-lavage-similar to EBUS, spun at 1200 rpm for 5 minutes to collet tissue pellet
Once a pellet of tissue obtained, DMEM added to the tissue pellet and the material forced through a […] Smart strainer. Once a cell suspension was achieved, this was spun at 1200 rpm for 5 minutes and the supernatant removed. The cells were then resuspended to a volume of 60 μl.
20 μl of FcR block and 20 μl of CD133 microbeads were added to the resuspended cells, followed by incubation for 15 minutes at 4° C. The cells were then processed using an AutoMACS machine. This separates the […] into CD133^+ and CD133^− cells in 2 separate falcons. The falcon tubes are then centrifuged at 1200 rpm for 5 minutes.
The supernatant was removed from the CD133+falcon tube, and the cells resuspended in DMEM with 2 μl Cell Tox, 2 μl MT and 2 μl MT. 20 μl of the resuspended […] was then plated in each well which will contain an immunotherapy treatment.
The supernatant was removed from the CD133^− falcon tube, and the CD133^− cells contacted with 40 μl of a tumour separation microbeads cocktail containing microbeads bound to anti-CD31, anti-CD45, anti-Glycophorin-A (Gly-A) and an anti-fibroblast antibody.
This cocktail is used to separate out tumour marker cells using MACS, by separating out CD31^+, CD45^+ and Gly-A^+ cells. In addition, anti-fibroblast antibody-labelled beads are also used. The cocktail is added to the CD133^− falcon tube, followed by incubation for 15 minutes at 4° C. MACS is carried out using an AutoMACS machine. This cells which are not bound by the CD31, CD45, Gly-A and anti-fibroblast antibody beads are the tumour marker^+ cells.
The different cell types were each divided equally into populations, depending on the number of drugs/concentrations to be tested and plated on a cell-culture plate pre-coated with a scaffold of polycaprolactone (PCL) electrospun fibres and incubated at 37° C., 5% CO2, for 5 to (typically 10) minutes to facilitate cell attachment. After attachment, an initial imaging step was carried out using the RealTime-Glo™ MT assay from Promega (Catalogue No. G9711)) and the CellTox™ Green Cytotoxicity Assay (Promega, Catalogue No. G8741), carried out according to manufacturer's instructions. Following this initial imagining, the immunotherapeutic and/or chemotherapeutic agents were added to the cell populations as indicated below. After 10 minutes, the imagining step was repeated. The cell populations were then incubated at 37° C., 5% CO2 for 48 hours. The imaging step was then repeated. The cell populations were then re-dosed with the same immunotherapeutic and/or chemotherapeutic agents as indicated below, and incubated at 37° C., 5% CO2 for a further 48 hours. After this second 48 hour incubation, the imagining step was repeated for a final time.
At the end of this culture period, dose response scores were calculated using a normalized drug response metric as described in Gupta et al. (Communications Biology volume 3, Article number: 42 (2020), https://doi.org/10.1038/s42003-020-0765-z). The start readout for a given immunotherapeutic or chemotherapeutic agent at a given concentration was the to readout for said immunotherapeutic or chemotherapeutic agent at a specified concentration. […]

With `COc1cc2nccc(Oc3ccc(NC(=O)NC4CC4)c(Cl)c3)c2cc1C(N)=O` [Lenvatinib], the “effectiveness on Cancer Cells from tissue sample under laboratory conditions” value (“effectiveness on Cancer Cells” below) is “S+”; the “Drug sensitivity as calculated by the assay, Tissue” value (shortened to “Drug sensitivity as calculated”) is “S+”; the “Drug response score, conc. 1” value was 0.9082; the “Drug response score, conc. 2” value is listed as 0.9132. Moreover, the “Drug response score, conc. 3” value was determined as 0.8739 and the “Drug response score, conc. 4” value amounted to 0.9434.

Turning to Pembrolizumab, the “effectiveness on Cancer Cells” value is listed as “S+”; the “Drug sensitivity as calculated” value was “S+”; the “Drug response score, conc. 1” value came to 0.9764; the “Drug response score, conc. 2” value was found to be 0.9717. Also, the “Drug response score, conc. 3” value is on record as 0.9672 and the “Drug response score, conc. 4” value was determined as 0.8354.

With Nivolumab, the “effectiveness on Cancer Cells” value was “S+”; the “Drug sensitivity as calculated” value is recorded as “S+”; the “Drug response score, conc. 1” value is 0.9424; the “Drug response score, conc. 2” value is recorded as 0.9636. For the same compound, the “Drug response score, conc. 3” value is 0.9018 and the “Drug response score, conc. 4” value came to 0.6833.

Turning to `CC(=O)O[C@H]1C(=O)[C@@]2(C)[C@H]([C@H](OC(=O)c3ccccc3)[C@]3(O)C[C@H](OC(=O)[C@H](O)[C@@H](NC(=O)c4ccccc4)c4ccccc4)C(C)=C1C3(C)C)[C@]1(OC(C)=O)CO[C@@H]1C[C@@H]2O` [Paclitaxel], the “Drug response score, conc. 1” value came out at 0.9365; the “Drug response score, conc. 2” value was determined as 0.9526; the “Drug response score, conc. 3” value was 0.9072; the “Drug response score, conc. 4” value is reported as 0.9683.
